Earlier results as cited in PubChem BioAssay AID1259409 (Chemical Carcinogenesis Research Information System (CCRIS), 2018).

Tested on: rodent chemically induced tumor inhibition, incidence and multiplicity
Experiment: CCRIS tumor inhibitor studies

In the case of `C#Cc1ccc2ccccc2c1`, the “tumour outcome (control, treated, inhibition, significance)” value (Carcinogen: 4-(METHYLNITROSAMINO)-1-(3-PYRIDYL)-1-BUTANONE, 64091-91-4, Dose [Inhibitor]: 0, 5 UMOL IN 0.1 ML CORN OIL ONCE 2 HR PRIOR TO CARCINOGEN DOSE (STUDY DURATION: 16 WK), Route [Inhibitor]: GAVAGE, Species: MOUSE, Strain/Sex: STRAIN-A/FEMALE, Target Tissue: Type of Lesion: LUNG: ADENOMA, Dose [Carcinogen]: 10 UMOL IN 0.1 ML SALINE ONCE, Promoter: NONE USED) is given as 100%, 89%, 11%, not significant, the “tumour outcome (control, treated, inhibition, significance)” value (Carcinogen: 7,12-DIMETHYLBENZ[A]ANTHRACENE, 57-97-6, Dose [Inhibitor]: 0, 3300 NMOL IN 0.2 ML ACETONE APPLIED TO BACK ONCE 5 MIN PRIOR TO CARCINOGEN DOSE (STUDY DURATION: 26 WK), Route [Inhibitor]: DERMAL, Species: MOUSE, Strain/Sex: SENCAR/FEMALE, Target Tissue: Type of Lesion: SKIN: PAPILLOMA, Dose [Carcinogen]: 10 NMOL IN 0.2 ML ACETONE APPLIED TO BACK ONCE) is given as 100%, 96%, 4%, not calculated and the outcome (Carcinogen: 7,12-DIMETHYLBENZ[A]ANTHRACENE, 57-97-6, Dose [Inhibitor]: 0, 33000 NMOL IN 0.2 ML ACETONE APPLIED TO BACK ONCE 5 MIN PRIOR TO CARCINOGEN D (STUDY DURATION: 26 WK), Route [Inhibitor]: DERMAL, Species: MOUSE, Strain/Sex: SENCAR/FEMALE, Target Tissue: Type of Lesion: SKIN: PAPILLOMA, Dose [Carcinogen]: 10 NMOL IN 0.2 ML ACETONE APPLIED TO BACK ONCE.) is given as 100%, 100%, 0, not calculated. The “tumour outcome (control, treated, inhibition, significance)” value (Carcinogen: 7,12-DIMETHYLBENZ[A]ANTHRACENE, 57-97-6, Dose [Inhibitor]: 0, 66000 NMOL IN 0.2 ML ACETONE APPLIED TO BACK ONCE 5 MIN PRIOR TO CARCINOGEN DOSE (STUDY DURATION: 20 WK), Route [Inhibitor]: DERMAL, Species: MOUSE, Strain/Sex: SENCAR/FEMALE, Target Tissue: Type of Lesion: SKIN: PAPILLOMA, Dose [Carcinogen]: 10 NMOL IN 0.2 ML ACETONE APPLIED TO BACK ONCE.) was 100%, 100%, 0%, not calculated, the outcome (Carcinogen: 7,12-DIMETHYLBENZ[A]ANTHRACENE, 57-97-6, Dose [Inhibitor]: 0, 66000 NMOL IN 0.2 ML ACETONE APPLIED TO BACK ONCE 5 MIN PRIOR TO CARCINOGEN DOSE (STUDY DURATION: 26 WK), Route [Inhibitor]: DERMAL, Species: MOUSE, Strain/Sex: SENCAR/FEMALE, Target Tissue: Type of Lesion: SKIN: PAPILLOMA, Dose [Carcinogen]: 10 NMOL IN 0.2 ML ACETONE APPLIED TO BACK ONCE.) was 100%, 100%, 0, not calculated and the “tumour outcome (control, treated, inhibition, significance)” value (Carcinogen: 7,12-DIMETHYLBENZ[A]ANTHRACENE, 57-97-6, Dose [Inhibitor]: 0, 132000 NMOL IN 0.2 ML ACETONE APPLIED TO BACK ONCE 5 MIN PRIOR TO CARCINOGEN DOSE (STUDY DURATION: 20 WK), Route [Inhibitor]: DERMAL, Species: MOUSE, Strain/Sex: SENCAR/FEMALE, Target Tissue: Type of Lesion: SKIN: PAPILLOMA, Dose [Carcinogen]: 10 NMOL IN 0.2 ML ACETONE APPLIED TO BACK ONCE.) was 100%, 89%, 11%, not calculated. The “tumour outcome (control, treated, inhibition, significance)” value (Carcinogen: BENZO[A]PYRENE, 50-32-8, Dose [Inhibitor]: 3300 NMOL IN 0.2 ML ACETONE APPLIED TO BACK ONCE 5 MIN PRIOR TO CARCINOGEN DOSE (STUDY DURATION: 26 WK), Route [Inhibitor]: DERMAL, Species: MOUSE, Strain/Sex: SENCAR/FEMALE, Target Tissue: Type of Lesion: SKIN: PAPILLOMA, Dose [Carcinogen]: 200 NMOL IN 0.2 ML ACETONE APPLIED TO BACK ONCE.) was 100%, 95%, 5%, not calculated, the “tumour outcome (control, treated, inhibition, significance)” value (Carcinogen: BENZO[A]PYRENE, 50-32-8, Dose [Inhibitor]: 33000 NMOL IN 0.2 ML ACETONE APPLIED TO BACK ONCE 5 MIN PRIOR TO CARCINOGEN DOSE (STUDY DURATION: 26 WK), Route [Inhibitor]: DERMAL, Species: MOUSE, Strain/Sex: SENCAR/FEMALE, Target Tissue: Type of Lesion: SKIN: PAPILLOMA, Dose [Carcinogen]: 200 NMOL IN 0.2 ML ACETONE APPLIED TO BACK ONCE.) was 100%, 89%, 11%, not calculated and the “tumour outcome (control, treated, inhibition, significance)” value (Carcinogen: BENZO[A]PYRENE, 50-32-8, Dose [Inhibitor]: 66000 NMOL IN 0.2 ML ACETONE APPLIED TO BACK ONCE 5 MIN PRIOR TO CARCINOGEN DOSE (STUDY DURATION: 20 WK), Route [Inhibitor]: DERMAL, Species: MOUSE, Strain/Sex: SENCAR/FEMALE, Target Tissue: Type of Lesion: SKIN: PAPILLOMA, Dose [Carcinogen]: 200 NMOL IN 0.2 ML ACETONE APPLIED TO BACK ONCE.) was 75%, 74%, 1%, not calculated. For the same compound, the “tumour outcome (control, treated, inhibition, significance)” value (Carcinogen: N-METHYL-N'-NITRO-N-NITROSOGUANIDINE, 70-25-7, Dose [Inhibitor]: 0, 33000 NMOL IN 0.2 ML ACETONE APPLIED TO BACK ONCE 5 MIN PRIOR TO CARCINOGEN DOSE (STUDY DURATION: 20 WK), Route [Inhibitor]: DERMAL, Species: MOUSE, Strain/Sex: SENCAR/FEMALE, Target Tissue: Type of Lesion: SKIN: PAPILLOMA, Dose [Carcinogen]: 2500 NMOL IN 0.2 ML ACETONE APPLIED TO BACK ONCE.) was 78%, 85%, -9%, not calculated.

For `CCC1OC(C)=C(O)C1=O` (stereo unspecified), the “tumour outcome (control, treated, inhibition, significance)” value (Carcinogen: BENZO[A]PYRENE, 50-32-8, Dose [Inhibitor]: 0, 25 PPM IN DIET BEGINNING POST CARCINOGEN TREATMENT AND CONTINUING FOR DURATION OF STUDY (STUDY DURATION: 148 D), Route [Inhibitor]: ORAL, Species: MOUSE, Strain/Sex: ICR/FEMALE, Target Tissue: Type of Lesion: FORESTOMACH: TUMOR, Dose [Carcinogen]: 1.5 MG IN 0.2 ML CORN OIL 1/WK FOR 4 WK, Promoter: NONE USED) is given as 100%, 76%, 24%, not calculated, the “tumour outcome (control, treated, inhibition, significance)” value (Carcinogen: BENZO[A]PYRENE, 50-32-8, Dose [Inhibitor]: 0, 50 PPM IN DIET BEGINNING POST CARCINOGEN TREATMENT AND CONTINUING FOR DURATION OF STUDY (STUDY DURATION: 148 D), Route [Inhibitor]: ORAL, Species: MOUSE, Strain/Sex: ICR/FEMALE, Target Tissue: Type of Lesion: FORESTOMACH: TUMOR, Dose [Carcinogen]: 1.5 MG IN 0.2 ML CORN OIL 1/WK FOR 4 WK, Promoter: NONE USED) is given as 100%, 54%, 46%, not calculated and the “tumour outcome (control, treated, inhibition, significance)” value (Carcinogen: BENZO[A]PYRENE, 50-32-8, Dose [Inhibitor]: 0, 75 PPM IN DIET BEGINNING POST CARCINOGEN TREATMENT AND CONTINUING FOR DURATION OF STUDY (STUDY DURATION: 148 D), Route [Inhibitor]: ORAL, Species: MOUSE, Strain/Sex: ICR/FEMALE, Target Tissue: Type of Lesion: FORESTOMACH: TUMOR, Dose [Carcinogen]: 1.5 MG IN 0.2 ML CORN OIL 1/WK FOR 4 WK, Promoter: NONE USED) is given as 100%, 75%, 25%, not calculated.

In the case of `S=C=S`, the “tumour outcome (control, treated, inhibition, significance)” value (Carcinogen: 1,2-DIMETHYLHYDRAZINE, 540-73-8, Dose [Inhibitor]: 0, 250 MG/KG BW IN CORN OIL ADMINISTERED 24 AND 2 HR PRIOR TO AND 24 HR POST EACH CARCINOGEN DOSE (STUDY DURATION: 8 MO), Route [Inhibitor]: GAVAGE, Species: RAT, Strain/Sex: BD6/MALE, Target Tissue: Type of Lesion: INTESTINE: TUMOR, Dose [Carcinogen]: 20 MG/KG BW 1/WK FOR 20 WK, Promoter: NONE USED) is given as 100%, 0%, 100%, not calculated.

For `C=CCSC`, the “tumour outcome (control, treated, inhibition, significance)” value (Carcinogen: 7,12-DIMETHYLBENZ[A]ANTHRACENE, 57-97-6, Dose [Inhibitor]: 0, 1.8 MMOL/KG BW IN CORN OIL 96, 48 AND 24 HR PRIOR TO CARCINOGEN TREATMENT (STUDY DURATION: 25 WK), Route [Inhibitor]: GAVAGE, Species: RAT, Strain/Sex: SPRAGUE-DAWLEY/FEMALE, Target Tissue: Type of Lesion: MAMMARY GLAND: ADENOCARCINOMA, Dose [Carcinogen]: 10 MG ONCE, Promoter: NONE USED) is given as 92%, 72%, 22%, p<0.05.

In the case of `CSCC[C@H](NC(=O)[C@@H](N)Cc1c[nH]c2ccccc12)C(=O)N[C@@H](CC(=O)O)C(=O)N[C@@H](Cc1ccccc1)C(N)=O`, the “tumour outcome (control, treated, inhibition, significance)” value (Carcinogen: N-METHYL-N'-NITRO-N-NITROSOGUANIDINE, 70-25-7, Dose [Inhibitor]: 1 MG/KG BW IN DEPOT FORM 1/2 D BEGINNING 1 WK POST LAST CARCINOGEN DOSE FOR DURATION OF STUDY (STUDY DURATION: 52 WK), Route [Inhibitor]: SUBCUTANEOUS, Species: RAT, Strain/Sex: WISTAR/MALE, Target Tissue: Type of Lesion: STOMACH: ADENOCARCINOMA, Dose [Carcinogen]: 50 UG/ML IN DRINKING WATER FOR 25 WK, Promoter: NONE USED) is listed as 12/19 (63%), 6/19 (32%), 49%, p<0.05.
